In article PMC7366380, “Discovery of a Potent and Selective Covalent Inhibitor and Activity-Based Probe for the Deubiquitylating Enzyme UCHL1, with Antifibrotic Activity” (Journal of the American Chemical Society, 2020):
“And” between values parts separate entries of the source, which are not always exact repeats. Equal entries are not always repeated.

Columns and labels:
[1] = molecular target: T1, USP25 (Homo sapiens, UniProt Q9UHP3); experiment: Biochemical DUB selectivity profiling assay: USP25; conditions: Ub-Lys-TAMRA 50 nM, buffer B; read-out: Biochemical IC50 range, USP25
T1 sequence (Q9UHP3 1-1055): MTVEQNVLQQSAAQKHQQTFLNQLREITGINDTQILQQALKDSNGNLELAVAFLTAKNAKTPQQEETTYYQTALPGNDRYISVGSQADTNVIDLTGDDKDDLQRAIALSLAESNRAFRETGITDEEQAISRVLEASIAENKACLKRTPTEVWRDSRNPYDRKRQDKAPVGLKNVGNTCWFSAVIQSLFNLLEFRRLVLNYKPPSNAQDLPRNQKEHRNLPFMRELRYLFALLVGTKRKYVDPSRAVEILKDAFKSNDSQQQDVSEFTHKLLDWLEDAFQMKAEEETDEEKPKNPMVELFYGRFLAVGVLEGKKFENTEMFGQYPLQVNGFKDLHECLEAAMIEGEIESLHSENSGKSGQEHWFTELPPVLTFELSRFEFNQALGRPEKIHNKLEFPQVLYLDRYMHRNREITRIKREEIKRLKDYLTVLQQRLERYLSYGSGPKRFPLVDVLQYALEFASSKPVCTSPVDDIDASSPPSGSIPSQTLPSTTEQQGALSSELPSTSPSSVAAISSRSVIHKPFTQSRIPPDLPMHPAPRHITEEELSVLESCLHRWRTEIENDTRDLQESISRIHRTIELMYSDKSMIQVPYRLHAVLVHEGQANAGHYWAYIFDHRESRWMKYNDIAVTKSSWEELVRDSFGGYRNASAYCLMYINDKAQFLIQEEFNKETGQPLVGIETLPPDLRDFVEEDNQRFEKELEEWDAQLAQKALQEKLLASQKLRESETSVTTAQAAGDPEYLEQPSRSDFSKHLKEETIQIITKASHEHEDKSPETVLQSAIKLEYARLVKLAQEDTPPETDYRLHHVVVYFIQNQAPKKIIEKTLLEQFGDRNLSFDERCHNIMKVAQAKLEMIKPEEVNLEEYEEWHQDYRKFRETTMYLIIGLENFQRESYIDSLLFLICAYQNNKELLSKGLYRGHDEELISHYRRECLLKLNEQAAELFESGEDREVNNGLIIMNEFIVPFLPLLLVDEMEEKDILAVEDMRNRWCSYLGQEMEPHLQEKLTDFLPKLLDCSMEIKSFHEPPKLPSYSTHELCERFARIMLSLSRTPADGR
Experimental: DUB Assay Substrate Substrate
Buffer Concentration (nM) […]
Sepharose® 4B resin (GE Healthcare).
10 kDa molecular weight cut-off (MWCO)).
Fractions containing protein
Protein concentration was […]
reaction volume of 21 μL. […]
compound (final concentration 5 nM).
IC50 values were determined
Biochemical DUB selectivity profiling assays […]
in 40 µL total reaction volume.

[2] = molecular target: DUBs and other proteins in HEK293 cells (Homo sapiens, UniProt Q93008); experiment: In-cell proteome-wide competitive ABPP, HEK293: other DUBs and proteins; conditions: replicates A-C; for Log2 reporter intensity values: USP9X;USP9Y: competition with ABP 2, DMSO substract (FC); for Log2 reporter intensity values: USP9X;USP9Y, DMSO subtracted
[3] = molecular target: T2, DUBs and other proteins in HEK293 cells (Homo sapiens, UniProt Q53GS9); experiment: as above; conditions: replicates A-C; for Log2 reporter intensity values: USP39: competition with ABP 2, DMSO substract (FC); for Log2 reporter intensity values: USP39, DMSO subtracted
T2 sequence (Q53GS9 1-565): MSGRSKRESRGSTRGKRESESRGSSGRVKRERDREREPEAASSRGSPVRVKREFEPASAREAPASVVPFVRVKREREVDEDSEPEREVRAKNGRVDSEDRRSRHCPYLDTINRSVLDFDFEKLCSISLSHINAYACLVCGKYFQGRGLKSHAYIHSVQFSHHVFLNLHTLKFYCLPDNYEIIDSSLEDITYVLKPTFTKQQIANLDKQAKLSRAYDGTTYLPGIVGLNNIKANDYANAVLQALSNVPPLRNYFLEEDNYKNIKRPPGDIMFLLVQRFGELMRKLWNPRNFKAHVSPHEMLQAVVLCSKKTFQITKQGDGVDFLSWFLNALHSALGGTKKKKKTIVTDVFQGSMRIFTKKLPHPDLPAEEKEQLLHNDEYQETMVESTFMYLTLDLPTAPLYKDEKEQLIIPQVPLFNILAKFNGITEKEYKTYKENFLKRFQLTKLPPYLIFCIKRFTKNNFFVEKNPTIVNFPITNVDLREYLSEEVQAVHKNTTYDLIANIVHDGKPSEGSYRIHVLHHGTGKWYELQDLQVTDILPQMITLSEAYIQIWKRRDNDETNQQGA

[4] = molecular target: DUBs and other proteins in HEK293 cells (Homo sapiens, UniProt Q9Y5T5); experiment: as above; conditions: replicates A-C; for Log2 reporter intensity values: USP16: competition with ABP 2, DMSO substract (FC); for Log2 reporter intensity values: USP16, DMSO subtracted
[5] = molecular target: T3, DUBs and other proteins in HEK293 cells (Homo sapiens, UniProt P51665); experiment: as above; conditions: replicates A-C; for Log2 reporter intensity values: PSMD7: competition with ABP 2, DMSO substract (FC); for Log2 reporter intensity values: PSMD7, DMSO subtracted
T3 sequence (P51665 1-324): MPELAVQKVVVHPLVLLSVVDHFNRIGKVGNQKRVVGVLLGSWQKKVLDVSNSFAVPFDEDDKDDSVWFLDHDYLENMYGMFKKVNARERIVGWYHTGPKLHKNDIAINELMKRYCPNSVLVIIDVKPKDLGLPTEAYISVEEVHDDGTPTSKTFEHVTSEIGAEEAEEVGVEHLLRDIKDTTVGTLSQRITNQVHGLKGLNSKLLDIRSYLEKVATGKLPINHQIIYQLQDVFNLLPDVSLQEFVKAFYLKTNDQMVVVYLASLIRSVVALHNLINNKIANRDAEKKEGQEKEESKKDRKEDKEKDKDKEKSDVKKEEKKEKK

Sequence of DUBs and other proteins in HEK293 cells (Homo sapiens, UniProt Q9Y5T5) (Q9Y5T5 whole entry): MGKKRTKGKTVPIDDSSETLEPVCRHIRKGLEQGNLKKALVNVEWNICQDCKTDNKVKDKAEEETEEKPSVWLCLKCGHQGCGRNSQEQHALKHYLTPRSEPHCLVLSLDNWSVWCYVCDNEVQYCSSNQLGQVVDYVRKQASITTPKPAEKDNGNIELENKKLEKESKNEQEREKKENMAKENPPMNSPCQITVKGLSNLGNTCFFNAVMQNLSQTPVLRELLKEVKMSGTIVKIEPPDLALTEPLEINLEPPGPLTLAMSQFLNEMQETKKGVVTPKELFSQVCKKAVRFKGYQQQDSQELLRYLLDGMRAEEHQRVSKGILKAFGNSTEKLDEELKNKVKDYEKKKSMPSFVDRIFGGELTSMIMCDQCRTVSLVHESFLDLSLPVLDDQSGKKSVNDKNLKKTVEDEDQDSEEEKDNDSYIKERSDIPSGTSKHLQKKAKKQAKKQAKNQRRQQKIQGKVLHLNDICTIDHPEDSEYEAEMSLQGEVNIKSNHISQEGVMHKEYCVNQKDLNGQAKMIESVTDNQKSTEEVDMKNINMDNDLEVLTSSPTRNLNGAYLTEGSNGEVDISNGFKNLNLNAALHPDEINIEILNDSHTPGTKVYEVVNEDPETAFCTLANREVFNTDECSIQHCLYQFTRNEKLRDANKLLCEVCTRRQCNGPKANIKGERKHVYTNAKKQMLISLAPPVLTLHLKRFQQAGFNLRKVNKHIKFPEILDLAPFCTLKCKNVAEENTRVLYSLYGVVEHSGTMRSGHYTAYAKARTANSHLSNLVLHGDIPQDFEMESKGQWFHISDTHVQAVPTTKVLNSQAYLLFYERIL
Sequence of DUBs and other proteins in HEK293 cells (Homo sapiens, UniProt Q93008) (Q93008 whole entry): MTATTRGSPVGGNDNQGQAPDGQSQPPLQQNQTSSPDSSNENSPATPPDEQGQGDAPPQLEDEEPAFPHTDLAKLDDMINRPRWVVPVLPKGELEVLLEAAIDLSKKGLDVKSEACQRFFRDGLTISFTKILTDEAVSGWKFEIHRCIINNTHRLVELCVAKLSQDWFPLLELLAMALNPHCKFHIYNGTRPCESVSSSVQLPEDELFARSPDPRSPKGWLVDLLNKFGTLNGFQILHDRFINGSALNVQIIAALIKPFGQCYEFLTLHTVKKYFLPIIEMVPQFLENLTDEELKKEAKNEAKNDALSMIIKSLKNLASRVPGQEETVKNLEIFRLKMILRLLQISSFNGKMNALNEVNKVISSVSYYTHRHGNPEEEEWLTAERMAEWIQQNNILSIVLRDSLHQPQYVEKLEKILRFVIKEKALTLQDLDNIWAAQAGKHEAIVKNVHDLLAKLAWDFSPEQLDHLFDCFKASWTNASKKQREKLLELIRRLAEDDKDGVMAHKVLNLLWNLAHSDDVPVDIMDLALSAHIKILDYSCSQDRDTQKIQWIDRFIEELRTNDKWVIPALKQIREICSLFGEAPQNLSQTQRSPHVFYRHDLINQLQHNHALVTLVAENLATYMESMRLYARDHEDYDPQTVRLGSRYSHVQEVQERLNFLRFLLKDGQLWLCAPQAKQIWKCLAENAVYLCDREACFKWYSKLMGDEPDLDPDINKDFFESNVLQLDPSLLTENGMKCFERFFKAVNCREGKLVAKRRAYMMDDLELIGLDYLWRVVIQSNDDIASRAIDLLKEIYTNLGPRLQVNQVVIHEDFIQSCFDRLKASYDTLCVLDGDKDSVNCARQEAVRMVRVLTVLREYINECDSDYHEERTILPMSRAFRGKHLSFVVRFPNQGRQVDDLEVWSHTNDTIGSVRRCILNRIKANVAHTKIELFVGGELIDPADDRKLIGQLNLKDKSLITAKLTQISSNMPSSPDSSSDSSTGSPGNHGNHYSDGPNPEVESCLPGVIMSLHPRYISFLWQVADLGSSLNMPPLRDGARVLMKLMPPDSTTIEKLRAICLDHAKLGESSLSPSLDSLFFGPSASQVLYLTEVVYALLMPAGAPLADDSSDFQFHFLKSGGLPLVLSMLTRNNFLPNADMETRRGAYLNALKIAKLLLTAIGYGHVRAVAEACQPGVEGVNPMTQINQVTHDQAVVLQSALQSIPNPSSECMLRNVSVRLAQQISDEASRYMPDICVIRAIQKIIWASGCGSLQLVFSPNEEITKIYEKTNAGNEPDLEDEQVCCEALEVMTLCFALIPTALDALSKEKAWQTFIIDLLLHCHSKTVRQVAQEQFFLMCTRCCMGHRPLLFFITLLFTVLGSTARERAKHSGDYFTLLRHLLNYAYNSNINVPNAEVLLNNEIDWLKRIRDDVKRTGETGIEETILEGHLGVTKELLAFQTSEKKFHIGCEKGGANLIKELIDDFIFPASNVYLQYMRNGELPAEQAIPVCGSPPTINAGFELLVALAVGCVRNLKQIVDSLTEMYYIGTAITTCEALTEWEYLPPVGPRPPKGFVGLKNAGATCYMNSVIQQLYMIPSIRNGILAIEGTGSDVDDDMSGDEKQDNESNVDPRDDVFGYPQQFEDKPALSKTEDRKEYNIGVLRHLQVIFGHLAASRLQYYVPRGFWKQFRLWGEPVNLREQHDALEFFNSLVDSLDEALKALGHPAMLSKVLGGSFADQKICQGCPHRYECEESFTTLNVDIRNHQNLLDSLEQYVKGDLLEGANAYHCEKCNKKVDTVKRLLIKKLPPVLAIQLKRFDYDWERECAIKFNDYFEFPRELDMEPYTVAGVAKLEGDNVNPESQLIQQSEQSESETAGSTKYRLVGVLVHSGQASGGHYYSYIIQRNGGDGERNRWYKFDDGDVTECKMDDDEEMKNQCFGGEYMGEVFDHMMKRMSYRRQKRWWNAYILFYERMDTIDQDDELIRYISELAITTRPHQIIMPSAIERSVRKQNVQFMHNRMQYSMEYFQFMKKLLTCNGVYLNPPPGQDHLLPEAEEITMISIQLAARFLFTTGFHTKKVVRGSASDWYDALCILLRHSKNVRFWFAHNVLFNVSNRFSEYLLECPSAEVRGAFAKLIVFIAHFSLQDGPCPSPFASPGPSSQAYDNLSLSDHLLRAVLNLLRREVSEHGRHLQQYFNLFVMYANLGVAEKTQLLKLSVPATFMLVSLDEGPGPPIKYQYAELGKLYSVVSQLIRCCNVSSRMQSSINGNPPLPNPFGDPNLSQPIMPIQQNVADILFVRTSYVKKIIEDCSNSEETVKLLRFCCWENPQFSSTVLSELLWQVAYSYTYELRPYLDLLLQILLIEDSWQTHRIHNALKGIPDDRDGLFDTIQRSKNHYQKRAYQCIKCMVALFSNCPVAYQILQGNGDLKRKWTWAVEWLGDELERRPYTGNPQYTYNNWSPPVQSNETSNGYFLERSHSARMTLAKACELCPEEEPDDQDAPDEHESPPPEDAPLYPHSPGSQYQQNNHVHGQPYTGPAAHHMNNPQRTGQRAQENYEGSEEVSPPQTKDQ

IC50 [1]: > 10 µM
Log2 reporter intensity values: USP9X;USP9Y ([2]; 3 at 1 μM): 1.02 and 0.9178 and 0.9768
Log2 reporter intensity values: USP9X;USP9Y ([2]; 3 at 4 μM): 0.9914 and 0.9828 and 0.9945
Log2 reporter intensity values ([2]; 3_1 μM): 0.02022 and -0.08228 and -0.02322
Log2 reporter intensity values ([2]; 3_4 μM): -0.008621 and -0.01719 and -0.00552
Log2 reporter intensity values ([2]; 3 at 1 μM): 0.02892 and -0.1238 and -0.03385
Log2 reporter intensity values ([2]; 3 at 4 μM): -0.01245 and -0.02497 and -0.007941
Log2 reporter intensity values: USP39 ([3]; 3 at 1 μM): 0.9789 and 0.9555 and 0.9911
Log2 reporter intensity values: USP39 ([3]; 3 at 4 μM): 0.9367 and 1.076 and 1.058
Log2 reporter intensity values ([3]; 3_1 μM): -0.0217 and -0.04512 and -0.009501
Log2 reporter intensity values ([3]; 3_4 μM): -0.06394 and 0.07549 and 0.05768
Log2 reporter intensity values ([3]; 3 at 1 μM): -0.03075 and -0.0657 and -0.01288
Log2 reporter intensity values ([3]; 3 at 4 μM): -0.09439 and 0.1058 and 0.08174
Log2 reporter intensity values: USP16 ([4]; 3 at 1 μM): 1.04 and 1.242 and 1.156
Log2 reporter intensity values: USP16 ([4]; 3 at 4 μM): 1.088 and 0.9104 and 1.039
Log2 reporter intensity values ([4]; 3_1 μM): 0.03732 and 0.2403 and 0.1536
Log2 reporter intensity values ([4]; 3_4 μM): 0.08611 and -0.09176 and 0.0368
Log2 reporter intensity values ([4]; 3 at 1 μM): 0.0559 and 0.3132 and 0.2089
Log2 reporter intensity values ([4]; 3 at 4 μM): 0.1221 and -0.1354 and 0.05518
Log2 reporter intensity values: PSMD7 ([5]; 3 at 1 μM): 1.2 and 1.081 and 1.198
Log2 reporter intensity values: PSMD7 ([5]; 3 at 4 μM): 1.083 and 1.233 and 0.9957
Log2 reporter intensity values ([5]; 3_1 μM): 0.1973 and 0.07834 and 0.1956
Log2 reporter intensity values ([5]; 3_4 μM): 0.08024 and 0.2301 and -0.006858
Log2 reporter intensity values ([5]; 3 at 1 μM): 0.2629 and 0.1122 and 0.2608
Log2 reporter intensity values ([5]; 3 at 4 μM): 0.1148 and 0.3017 and -0.006207
Compound: N#CN1CCC[C@@H]1C(=O)N1CCc2c(-c3c[nH]c4ncccc34)cccc21 [Compound 3]
